The numbers were not newly measured in patent publication US8524202B2, “Tooth whitening compositions and methods” (priority 2008, dated 2013), which cites them from elsewhere.

Molecules are shown by their SMILES.

The conditions of the data set: at six months; concentrations 16%-18% carbamide peroxide; Brunton et al., 2004.

Regarding `NC(N)=O.OO` [carbamide peroxide], the “rebound, patients” value is 40%.
